Target: T1, pig odorant-binding protein (pOBP) (Sus scrofa, UniProt P81245)
T1 construct: recombinant pOBP, GST tag removed by thrombin; monomer of 157 amino acids
T1 sequence (P81245 1-157): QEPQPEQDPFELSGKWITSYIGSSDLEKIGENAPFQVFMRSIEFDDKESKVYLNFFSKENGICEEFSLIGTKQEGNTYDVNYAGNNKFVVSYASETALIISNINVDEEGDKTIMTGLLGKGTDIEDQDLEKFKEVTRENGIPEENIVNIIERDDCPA
Test: competitive FRET displacement of 1-AMA; also impedance (EIS) with immobilised pOBP

Kd: 18.5 mM
SMILES: C=CC(O)CCCCC (stereo not shown) [1-octen-3-ol]

Reference: publication PMC10046769, “An Impedimetric Biosensor for Detection of Volatile Organic Compounds in Food” (Biosensors, 2023)
